# Patent US9388140B2, “Substituted benzimidazoles” (priority 2011, dated 2016)
# pIC50: −log10 of the molar value.
# Biological target: human kinase Mps-1 (Homo sapiens (Human), UniProt P33981)
# Assay: Mps-1 kinase assay (TR-FRET)
# Type: biochemical
# Conditions: N-terminally GST-tagged human full length recombinant Mps-1; 10 μM ATP; 1 μM biotinylated peptide substrate; read-out: Mps1 IC50
# Procedure: The human kinase Mps-1 phosphorylates a biotinylated substrate peptide. Detection of the phosphorylated product is achieved by time-resolved fluorescence resonance energy transfer (TR-FRET) from Europium-labelled anti-phospho-Serine/Threonine antibody as donor to streptavidin labelled with cross-linked allophycocyanin (SA-XLent) as acceptor. Compounds are tested for their inhibition of the kinase activity.
# N-terminally GST-tagged human full length recombinant Mps-1 kinase (purchased from Invitrogen, Karslruhe, Germany, cat. no PV4071) was used. As substrate for the kinase reaction a biotinylated peptide of the amino-acid sequence […] (C-terminus in amide form, purchased from Biosynthan GmbH, Berlin) was used.
# The concentration of Mps-1 in the assay was adjusted to the activity of the enzyme lot and was chosen appropriate to have the assay in the linear range, typical enzyme concentrations were in the range of about 1 nM (final conc. in the 5 μl assay volume).
# The resulting mixture was incubated 1 h at 22° C. to allow the binding of the phosphorylated peptide to the anti-phospho(Ser/Thr)-Europium-antibody. Subsequently the amount of phosphorylated substrate was evaluated by measurement of the resonance energy transfer from the Europium-labelled anti-phospho(Ser/Thr) antibody to the Streptavidin-XLent.
# human kinase Mps-1, sequence (P33981 whole entry): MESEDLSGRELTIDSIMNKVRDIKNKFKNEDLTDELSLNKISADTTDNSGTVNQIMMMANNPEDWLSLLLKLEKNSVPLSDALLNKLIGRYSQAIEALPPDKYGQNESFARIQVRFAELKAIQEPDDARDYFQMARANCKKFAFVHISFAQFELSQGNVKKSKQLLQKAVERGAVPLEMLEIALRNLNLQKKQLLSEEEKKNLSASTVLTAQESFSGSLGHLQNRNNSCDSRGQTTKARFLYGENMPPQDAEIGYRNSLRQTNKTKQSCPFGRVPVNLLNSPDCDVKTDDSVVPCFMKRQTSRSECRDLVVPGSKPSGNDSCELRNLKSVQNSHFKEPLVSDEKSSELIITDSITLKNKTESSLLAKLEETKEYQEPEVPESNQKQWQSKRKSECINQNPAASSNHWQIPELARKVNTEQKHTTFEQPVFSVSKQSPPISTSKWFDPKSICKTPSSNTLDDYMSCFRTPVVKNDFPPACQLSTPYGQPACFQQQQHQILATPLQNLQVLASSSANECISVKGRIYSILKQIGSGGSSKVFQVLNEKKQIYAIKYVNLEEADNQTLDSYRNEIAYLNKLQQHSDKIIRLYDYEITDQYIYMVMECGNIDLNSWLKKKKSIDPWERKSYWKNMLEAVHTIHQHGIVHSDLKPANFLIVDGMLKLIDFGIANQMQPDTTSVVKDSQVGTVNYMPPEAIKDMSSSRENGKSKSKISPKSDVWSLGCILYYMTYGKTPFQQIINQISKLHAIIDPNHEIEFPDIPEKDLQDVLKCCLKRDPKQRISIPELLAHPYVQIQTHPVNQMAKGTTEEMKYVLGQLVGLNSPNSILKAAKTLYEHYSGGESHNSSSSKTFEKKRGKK
smiles,measurement,value
"COc1ccc(C(C)(O)c2cc(NCCC(F)(F)F)c3ncn(-c4ccc(C(=O)NC5CC5)c(C)c4)c3c2)cc1F (racemic) [Example 103A, N-cyclopropyl-4-{6-[(1RS)-1-(3-fluoro-4-methoxyphenyl)-1-hydroxyethyl]-4-[(3,3,3-trifluoropropyl)amino]-1H-benzimidazol-1-yl}-2-methylbenzamide]",pIC50,8.57
"COc1ccc(C(C)c2cc(NCCC(F)(F)F)c3ncn(-c4ccc(C(=O)NC5CC5)c(C)c4)c3c2)cc1F (racemic) [Example 105, N-cyclopropyl-4-{6-[(1RS)-1-(3-fluoro-4-methoxyphenyl)ethyl]-4-[(3,3,3-trifluoropropyl)amino]-1H-benzimidazol-1-yl}-2-methylbenzamide]",pIC50,8.54
"Cc1cc(-n2cnc3c(NCCC(F)(F)F)cc(-c4ccncc4)cc32)ccc1C(=O)NC1CC1 [Example 2, N-cyclopropyl-2-methyl-4-{6-(pyridin-4-yl)-4-[(3,3,3-trifluoropropyl)amino]-1H-benzimidazol-1-yl}benzamide]",pIC50,9.70
"Cc1ccc(F)cc1Nc1cc(NCCC(F)(F)F)c2ncn(-c3ccc(C(=O)NC4CC4)c(C)c3)c2c1 [Example 3, N-Cyclopropyl-4-{6-[(5-fluoro-2-methylphenyl)amino]-4-[(3,3,3-trifluoropropyl)amino]-1H-benzimidazol-1-yl}-2-methylbenzamide]",pIC50,8.82
"Cc1cc(-n2cnc3c(NCCC(F)(F)F)cc(Oc4cccc(F)c4)cc32)ccc1C(=O)NC1CC1 [Example 4, N-cyclopropyl-4-{6-(3-fluorophenoxy)-4-[(3,3,3-trifluoropropyl)amino]-1H-benzimidazol-1-yl}-2-methylbenzamide]",pIC50,9.15
"Cc1cc(-n2cnc3c(NCCC(F)(F)F)cc(Nc4cccc(F)c4F)cc32)ccc1C(=O)NC1CC1 [Example 5, N-cyclopropyl-4-{6-[(2,3-difluorophenyl)amino]-4-[(3,3,3-trifluoropropyl)amino]-1H-benzimidazol-1-yl}-2-methylbenzamide]",pIC50,8.64
"CC(C)CNc1cc(Br)cc2c1ncn2-c1ccc(C(=O)NC2CC2)cc1 [Example 6, 4-{6-bromo-4-[(2-methylpropyl)amino]-1H-benzimidazol-1-yl}-N-cyclopropylbenzamide]",pIC50,7.78
"CC(C)CNc1cc(-c2ccc(F)cc2)cc2c1ncn2-c1ccc(C(=O)NC2CC2)cc1 [Example 7, N-cyclopropyl-4-{6-(4-fluorophenyl)-4-[(2-methylpropyl)amino]-1H-benzimidazol-1-yl}benzamide]",pIC50,8.72
"Cc1cc(-n2cnc3c(NCC4CCOCC4)cc(Oc4cccc(F)c4)cc32)ccc1C(=O)NC1CC1 [Example 9, N-cyclopropyl-4-{6-(3-fluorophenoxy)-4-[(tetrahydro-2H-pyran-4-ylmethyl)amino]-1H-benzimidazol-1-yl}-2-methylbenzamide]",pIC50,9.40
"CNC(=O)c1ccc(-n2cnc3c(NCCC(F)(F)F)cc(Oc4cccc(F)c4)cc32)cc1C [Example 10, 4-{6-(3-Fluorophenoxy)-4-[(3,3,3-trifluoropropyl)amino]-1H-benzimidazol-1-yl}-N,2-dimethylbenzamide]",pIC50,8.33
"CCNC(=O)c1ccc(-n2cnc3c(NCCC(F)(F)F)cc(Oc4cccc(F)c4)cc32)cc1C [Example 11, N-ethyl-4-{6-(3-fluorophenoxy)-4-[(3,3,3-trifluoropropyl)amino]-1H-benzimidazol-1-yl}-2-methylbenzamide]",pIC50,8.18
"Cc1cc(-n2cnc3c(NCCC(F)(F)F)cc(Oc4cccc(F)c4)cc32)ccc1C(=O)NC1(C)CC1 [Example 12, 4-{6-(3-Fluorophenoxy)-4-[(3,3,3-trifluoropropyl)amino]-1H-benzimidazol-1-yl}-2-methyl-N-(1-methylcyclopropyl)benzamide]",pIC50,7.82
"Cc1cc(-n2cnc3c(NCCC(F)(F)F)cc(Oc4cccc(F)c4)cc32)ccc1C(=O)NC1(C#N)CC1 [Example 13, N-(1-cyanocyclopropyl)-4-{6-(3-fluorophenoxy)-4-[(3,3,3-trifluoropropyl)amino]-1H-benzimidazol-1-yl}-2-methylbenzamide]",pIC50,7.31
"Cc1cc(-n2cnc3c(NCCC(F)(F)F)cc(Oc4cccc(F)c4F)cc32)ccc1C(=O)NC1CC1 [Example 14, N-cyclopropyl-4-{6-(2,3-difluorophenoxy)-4-[(3,3,3-trifluoropropyl)amino]-1H-benzimidazol-1-yl}-2-methylbenzamide]",pIC50,9.30
"Cc1cc(F)cc(Oc2cc(NCC3CCOCC3)c3ncn(-c4ccc(C(=O)NC5CC5)c(C)c4)c3c2)c1 [Example 15, N-cyclopropyl-4-{6-(3-fluoro-5-methylphenoxy)-4-[(tetrahydro-2H-pyran-4-ylmethyl)amino]-1H-benzimidazol-1-yl}-2-methylbenzamide]",pIC50,9.22
"Cc1ccc(F)cc1Oc1cc(NCC2CCOCC2)c2ncn(-c3ccc(C(=O)NC4CC4)c(C)c3)c2c1 [Example 16, N-cyclopropyl-4-{6-(5-fluoro-2-methylphenoxy)-4-[(tetrahydro-2H-pyran-4-ylmethyl)amino]-1H-benzimidazol-1-yl}-2-methylbenzamide]",pIC50,9.22
"Cc1cc(-n2cnc3c(NCC4CCOCC4)cc(Oc4ccc(F)c(F)c4)cc32)ccc1C(=O)NC1CC1 [Example 17, N-cyclopropyl-4-{6-(3,4-difluorophenoxy)-4-[(tetrahydro-2H-pyran-4-ylmethyl)amino]-1H-benzimidazol-1-yl}-2-methylbenzamide]",pIC50,8.96
"Cc1cc(-n2cnc3c(NCCC(F)(F)F)cc(Oc4ccc(Cl)cc4)cc32)ccc1C(=O)NC1CC1 [Example 18, 4-{6-(4-Chlorophenoxy)-4-[(3,3,3-trifluoropropyl)amino]-1H-benzimidazol-1-yl}-N-cyclopropyl-2-methylbenzamide]",pIC50,8.62
"Cc1ccc(F)cc1Nc1cc(NCC2CCOCC2)c2ncn(-c3ccc(C(=O)NC4CC4)c(C)c3)c2c1 [Example 19, N-cyclopropyl-4-{6-[(5-fluoro-2-methylphenyl)amino]-4-[(tetrahydro-2H-pyran-4-ylmethyl)amino]-1H-benzimidazol-1-yl}-2-methylbenzamide]",pIC50,8.92
"Cc1cc(-n2cnc3c(NCC4CCOCC4)cc(-c4ccccc4CO)cc32)ccc1C(=O)NC1CC1 [Example 20, N-cyclopropyl-4-{6-[2-(hydroxymethyl)phenyl]-4-[(tetrahydro-2H-pyran-4-ylmethyl)amino]-1H-benzimidazol-1-yl}-2-methylbenzamide]",pIC50,8.82
"Cc1cc(-n2cnc3c(NCCC(F)(F)F)cc(-c4ccccc4CO)cc32)ccc1C(=O)NC1CC1 [Example 21, N-cyclopropyl-4-{6-[2-(hydroxymethyl)phenyl]-4-[(3,3,3-trifluoropropyl)amino]-1H-benzimidazol-1-yl}-2-methylbenzamide]",pIC50,8.74
"Cc1cc(-n2cnc3c(NCC4CCOCC4)cc(Oc4ccc(Cl)c(F)c4)cc32)ccc1C(=O)NC1CC1 [Example 22, 4-{6-(4-Chloro-3-fluorophenoxy)-4-[(tetrahydro-2H-pyran-4-ylmethyl)amino]-1H-benzimidazol-1-yl}-N-cyclopropyl-2-methylbenzamide]",pIC50,8.57
"Cc1cc(-n2cnc3c(NCC4CCOCC4)cc(Oc4ccc(Cl)cc4)cc32)ccc1C(=O)NC1CC1 [Example 23, 4-{6-(4-Chlorophenoxy)-4-[(tetrahydro-2H-pyran-4-ylmethyl)amino]-1H-benzimidazol-1-yl}-N-cyclopropyl-2-methylbenzamide]",pIC50,8.66
"Cc1cc(-n2cnc3c(NCC4CCOCC4)cc(Oc4cccc(F)c4F)cc32)ccc1C(=O)NC1CC1 [Example 25, N-cyclopropyl-4-{6-(2,3-difluorophenoxy)-4-[(tetrahydro-2H-pyran-4-ylmethyl)amino]-1H-benzimidazol-1-yl}-2-methylbenzamide]",pIC50,9.70
"Cc1cc(F)cc(Oc2cc(NCCC(F)(F)F)c3ncn(-c4ccc(C(=O)NC5CC5)c(C)c4)c3c2)c1 [Example 26, N-cyclopropyl-4-{6-(3-fluoro-5-methylphenoxy)-4-[(3,3,3-trifluoropropyl)amino]-1H-benzimidazol-1-yl}-2-methylbenzamide]",pIC50,8.74
"Cc1cc(-n2cnc3c(NCCC(F)(F)F)cc(Oc4ccc(F)c(F)c4)cc32)ccc1C(=O)NC1CC1 [Example 27, N-cyclopropyl-4-{6-(3,4-difluorophenoxy)-4-[(3,3,3-trifluoropropyl)amino]-1H-benzimidazol-1-yl}-2-methylbenzamide]",pIC50,8.85
"Cc1cc(-n2cnc3c(NCCC(F)(F)F)cc(Oc4ccc(Cl)c(F)c4)cc32)ccc1C(=O)NC1CC1 [Example 28, 4-{6-(4-Chloro-3-fluorophenoxy)-4-[(3,3,3-trifluoropropyl)amino]-1H-benzimidazol-1-yl}-N-cyclopropyl-2-methylbenzamide]",pIC50,8.51
"COc1ccc(Oc2cc(NCCC(F)(F)F)c3ncn(-c4ccc(C(=O)NC5CC5)c(C)c4)c3c2)c(F)c1 [Example 29, N-cyclopropyl-4-{6-(2-fluoro-4-methoxyphenoxy)-4-[(3,3,3-trifluoropropyl)amino]-1H-benzimidazol-1-yl}-2-methylbenzamide]",pIC50,9.05
"Cc1cc(-n2cnc3c(NCCC(F)(F)F)cc(-c4ccnn4C)cc32)ccc1C(=O)NC1CC1 [Example 30, N-cyclopropyl-2-methyl-4-{6-(1-methyl-1H-pyrazol-5-yl)-4-[(3,3,3-trifluoropropyl)amino]-1H-benzimidazol-1-yl}benzamide]",pIC50,8.32
